Active and inactive are the calls of the source.
Legend:
[1] = Luminescence Cell-Based Dose Confirmation HTS to Identify Activators of 5'UTR Stem-Loop Driven Alpha-Synuclein mRNA Translation in H4 Neuroglioblastoma Cells. [Related pubchem assays: 1829 (Project Summary), 1814 (Primary HTS)]; format: functional
[2] = target: T1, Polyadenylate-binding protein 1 (Homo sapiens, UniProt P11940); experiment: PABP1 MLLE–PAM2 interaction inhibitors, dose response, miRNA deadenylation inhibitor project, biochemical, fluorescence polarization, Cy5-PAM2 peptide, secondary (AID 602260); format: functional; conditions: read-out: IC50_Mean
T1 sequence (P11940 whole entry): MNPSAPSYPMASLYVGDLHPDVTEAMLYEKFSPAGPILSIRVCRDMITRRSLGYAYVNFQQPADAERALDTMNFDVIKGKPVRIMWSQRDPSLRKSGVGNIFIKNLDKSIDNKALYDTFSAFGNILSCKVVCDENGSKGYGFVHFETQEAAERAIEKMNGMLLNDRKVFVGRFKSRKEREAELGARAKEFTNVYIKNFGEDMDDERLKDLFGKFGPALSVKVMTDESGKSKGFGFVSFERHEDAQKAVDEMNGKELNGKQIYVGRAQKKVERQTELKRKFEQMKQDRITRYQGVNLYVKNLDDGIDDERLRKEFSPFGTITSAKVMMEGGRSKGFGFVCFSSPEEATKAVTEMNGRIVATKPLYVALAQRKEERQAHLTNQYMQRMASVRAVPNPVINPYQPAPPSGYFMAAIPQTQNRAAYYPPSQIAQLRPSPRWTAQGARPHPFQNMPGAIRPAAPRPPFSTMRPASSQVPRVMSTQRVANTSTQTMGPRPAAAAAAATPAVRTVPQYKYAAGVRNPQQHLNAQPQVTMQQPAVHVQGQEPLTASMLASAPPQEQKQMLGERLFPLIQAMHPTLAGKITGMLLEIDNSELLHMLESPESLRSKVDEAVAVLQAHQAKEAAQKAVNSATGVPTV

[3] = Luminescence Cell-Based Dose Response HTS to Identify Activators of Luciferase Translation or Activity in H4 […] Cells. [Related pubchem assays: 1829 (Project Summary), 1814 (Primary HTS)]; format: functional
[4] = test system: H4; experiment: Luminescence Cell-Based Dose Response HTS to Identify Activators of 5'UTR Stem-Loop Driven Prion Protein mRNA Translation in H4 Neuroglioblastoma Cells. [Related pubchem assays: 1829 (Project Summary), 1814 (Primary HTS)]; format: functional; conditions: Homo sapiens
[5] = target: T1, Polyadenylate-binding protein 1; experiment: PABP1 MLLE–PAM2 binding inhibitor potency, dose response, biochemical, fluorescence polarization, FITC-PAM2 peptide (AID 602259); format: functional; conditions: read-out: IC50_Mean
[6] = target: Ras and Rab interactor 1/Tyrosine-protein kinase ABL1 (Homo sapiens, UniProt P00519+Q13671); format: functional;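 note: biochemical TR-FRET dose-response test measuring inhibition of binding between Rin1 and Abl proteins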
Sequence of Ras and Rab interactor 1/Tyrosine-protein kinase ABL1 (P00519 whole entry): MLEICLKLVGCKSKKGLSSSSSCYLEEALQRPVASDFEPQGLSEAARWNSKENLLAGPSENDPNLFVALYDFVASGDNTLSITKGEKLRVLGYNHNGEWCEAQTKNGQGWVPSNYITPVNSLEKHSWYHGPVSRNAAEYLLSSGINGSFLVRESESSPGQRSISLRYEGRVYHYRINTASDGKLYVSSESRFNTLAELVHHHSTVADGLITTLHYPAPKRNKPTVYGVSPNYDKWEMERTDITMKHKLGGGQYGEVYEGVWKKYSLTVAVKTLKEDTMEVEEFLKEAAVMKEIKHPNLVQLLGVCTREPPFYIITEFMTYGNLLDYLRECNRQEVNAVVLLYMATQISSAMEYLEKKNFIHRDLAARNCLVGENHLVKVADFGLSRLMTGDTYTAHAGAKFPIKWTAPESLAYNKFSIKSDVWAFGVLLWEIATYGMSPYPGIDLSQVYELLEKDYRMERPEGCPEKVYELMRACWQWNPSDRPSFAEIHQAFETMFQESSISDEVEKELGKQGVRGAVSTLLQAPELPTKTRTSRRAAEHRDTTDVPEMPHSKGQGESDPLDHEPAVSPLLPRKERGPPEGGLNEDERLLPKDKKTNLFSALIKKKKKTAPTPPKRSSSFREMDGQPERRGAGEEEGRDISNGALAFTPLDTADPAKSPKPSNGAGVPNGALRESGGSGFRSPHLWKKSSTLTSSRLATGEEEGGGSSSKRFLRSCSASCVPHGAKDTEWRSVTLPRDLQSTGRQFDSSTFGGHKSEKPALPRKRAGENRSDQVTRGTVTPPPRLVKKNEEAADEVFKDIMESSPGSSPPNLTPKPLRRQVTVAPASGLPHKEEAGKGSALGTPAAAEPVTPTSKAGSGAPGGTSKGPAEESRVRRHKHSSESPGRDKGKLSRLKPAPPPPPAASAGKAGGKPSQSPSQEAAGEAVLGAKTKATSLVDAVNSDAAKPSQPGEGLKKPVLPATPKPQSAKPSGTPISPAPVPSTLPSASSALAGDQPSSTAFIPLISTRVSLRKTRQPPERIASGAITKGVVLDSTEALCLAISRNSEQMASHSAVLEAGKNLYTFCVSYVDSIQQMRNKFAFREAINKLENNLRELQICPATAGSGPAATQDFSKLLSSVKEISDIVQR
Sequence of Ras and Rab interactor 1/Tyrosine-protein kinase ABL1 (Q13671 whole entry): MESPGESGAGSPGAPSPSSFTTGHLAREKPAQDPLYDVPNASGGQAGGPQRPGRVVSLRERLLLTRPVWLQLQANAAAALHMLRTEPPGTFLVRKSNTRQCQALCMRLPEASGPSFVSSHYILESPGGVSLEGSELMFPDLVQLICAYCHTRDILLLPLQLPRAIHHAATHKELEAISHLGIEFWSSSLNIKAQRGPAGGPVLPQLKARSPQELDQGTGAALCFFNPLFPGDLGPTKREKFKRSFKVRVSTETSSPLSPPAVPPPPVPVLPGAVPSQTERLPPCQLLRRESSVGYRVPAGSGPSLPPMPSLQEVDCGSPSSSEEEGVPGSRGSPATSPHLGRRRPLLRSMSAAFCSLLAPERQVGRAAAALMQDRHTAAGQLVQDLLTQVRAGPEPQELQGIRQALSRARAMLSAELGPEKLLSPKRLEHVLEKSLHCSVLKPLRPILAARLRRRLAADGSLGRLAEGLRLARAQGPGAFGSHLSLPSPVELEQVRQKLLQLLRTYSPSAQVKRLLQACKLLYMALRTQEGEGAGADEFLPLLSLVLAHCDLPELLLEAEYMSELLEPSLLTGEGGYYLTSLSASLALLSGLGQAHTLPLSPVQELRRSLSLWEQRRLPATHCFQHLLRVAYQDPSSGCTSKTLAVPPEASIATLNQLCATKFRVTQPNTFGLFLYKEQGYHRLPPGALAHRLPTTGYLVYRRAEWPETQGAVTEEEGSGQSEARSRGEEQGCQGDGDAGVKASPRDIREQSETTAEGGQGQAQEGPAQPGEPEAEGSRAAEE

[7] = target: Glucose-6-phosphate 1-dehydrogenase (Homo sapiens, UniProt P11413); experiment: human G6PD enzyme inhibitors, dose response, selectivity assay for P. falciparum G6PD inhibitor project, biochemical, fluorescence (AID 504792); format: functional
Sequence of Glucose-6-phosphate 1-dehydrogenase (P11413 whole entry): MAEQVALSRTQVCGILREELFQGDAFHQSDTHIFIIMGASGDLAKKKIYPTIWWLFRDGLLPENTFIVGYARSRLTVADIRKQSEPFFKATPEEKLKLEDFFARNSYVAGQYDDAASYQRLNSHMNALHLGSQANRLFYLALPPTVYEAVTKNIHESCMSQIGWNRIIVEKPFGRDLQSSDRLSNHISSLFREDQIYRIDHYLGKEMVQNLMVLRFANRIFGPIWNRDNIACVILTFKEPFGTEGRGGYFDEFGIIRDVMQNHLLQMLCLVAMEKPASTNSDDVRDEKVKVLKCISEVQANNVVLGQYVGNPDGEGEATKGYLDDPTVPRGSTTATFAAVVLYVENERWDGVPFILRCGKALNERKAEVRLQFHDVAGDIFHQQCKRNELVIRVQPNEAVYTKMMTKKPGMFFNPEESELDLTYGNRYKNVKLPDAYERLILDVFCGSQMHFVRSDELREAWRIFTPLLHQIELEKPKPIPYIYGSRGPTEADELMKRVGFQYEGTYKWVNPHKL

[8] = target: T2, Corticotropin-releasing factor receptor 2/Corticotropin-releasing factor-binding protein (Homo sapiens, UniProt P24387+Q13324); experiment: Dose Response confirmation of uHTS hits for small molecule antagonists of the CRF-binding protein and CRF-R2 receptor complex.; format: functional; conditions: read-out: IC50_Mean
T2 sequence (Q13324 whole entry): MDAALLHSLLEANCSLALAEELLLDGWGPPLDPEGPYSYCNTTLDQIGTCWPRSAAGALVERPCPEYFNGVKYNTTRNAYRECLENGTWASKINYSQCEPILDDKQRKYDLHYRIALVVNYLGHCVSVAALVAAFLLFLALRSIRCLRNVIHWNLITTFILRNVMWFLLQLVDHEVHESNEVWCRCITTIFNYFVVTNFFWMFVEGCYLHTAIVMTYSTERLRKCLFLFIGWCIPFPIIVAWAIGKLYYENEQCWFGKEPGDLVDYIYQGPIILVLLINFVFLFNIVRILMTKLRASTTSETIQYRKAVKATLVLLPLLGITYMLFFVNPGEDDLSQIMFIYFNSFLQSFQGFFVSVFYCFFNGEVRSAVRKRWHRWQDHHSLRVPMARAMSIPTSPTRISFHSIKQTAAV
T2 sequence (P24387 whole entry): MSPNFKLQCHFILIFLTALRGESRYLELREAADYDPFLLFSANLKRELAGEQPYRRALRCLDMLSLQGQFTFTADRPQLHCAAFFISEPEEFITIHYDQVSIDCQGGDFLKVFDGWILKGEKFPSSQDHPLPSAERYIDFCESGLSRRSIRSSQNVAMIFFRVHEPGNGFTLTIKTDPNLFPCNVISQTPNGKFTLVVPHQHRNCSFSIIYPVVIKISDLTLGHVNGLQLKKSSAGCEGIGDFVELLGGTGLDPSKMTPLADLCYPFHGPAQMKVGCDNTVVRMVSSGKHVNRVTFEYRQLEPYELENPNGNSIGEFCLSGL

[9] = test system: HEK293; experiment: inhibitors of LMP1-driven NF-kB reporter, dose response, cell-based, HEK293, luciferase, cherry-pick (AID 588343); format: functional; conditions: Homo sapiens
[10] = target: T2, Corticotropin-releasing factor receptor 2/Corticotropin-releasing factor-binding protein; experiment: activators of CRF receptor 2 with binding protein – uHTS hits, confirmation (AID 602473); format: functional; conditions: read-out: EC50_Mean
[11] = target: Eukaryotic translation initiation factor 4E (Mus musculus, UniProt P63073); experiment: eIF4E–eIF4G protein interaction inhibitors, dose response, biochemical, TR-FRET (AID 855); format: functional;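 note: potency for disrupting eIF4E binding to eIF4GI seen as loss of FRET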
Sequence of Eukaryotic translation initiation factor 4E (P63073 whole entry): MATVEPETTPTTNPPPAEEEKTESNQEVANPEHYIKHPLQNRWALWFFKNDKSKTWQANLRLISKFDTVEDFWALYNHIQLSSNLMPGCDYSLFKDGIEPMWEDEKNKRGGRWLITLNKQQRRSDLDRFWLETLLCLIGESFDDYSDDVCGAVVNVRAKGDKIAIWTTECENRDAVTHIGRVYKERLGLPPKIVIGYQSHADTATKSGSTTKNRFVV

[12] = target: Induced myeloid leukemia cell differentiation protein Mcl-1 (Homo sapiens, UniProt Q07820); format: functional
Sequence of Induced myeloid leukemia cell differentiation protein Mcl-1 (Q07820 whole entry): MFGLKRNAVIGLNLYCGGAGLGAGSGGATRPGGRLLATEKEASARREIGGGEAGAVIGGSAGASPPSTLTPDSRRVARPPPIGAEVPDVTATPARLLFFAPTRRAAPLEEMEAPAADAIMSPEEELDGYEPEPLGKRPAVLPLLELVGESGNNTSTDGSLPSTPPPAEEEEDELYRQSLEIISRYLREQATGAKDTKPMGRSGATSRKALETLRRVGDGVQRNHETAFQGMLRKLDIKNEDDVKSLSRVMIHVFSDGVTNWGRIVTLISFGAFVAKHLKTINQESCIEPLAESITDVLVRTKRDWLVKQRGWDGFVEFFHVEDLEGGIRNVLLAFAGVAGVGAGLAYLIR

[13] = test system: Streptococcus; experiment: Group A Streptococcus viability loss, dose response, counter-screen for streptokinase expression inhibitor project, luminescence, BacTiterGlo (AID 1915); format: functional, organism-based;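 note: potency for reduction of bacterial viability or growth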
[14] = test system: Streptococcus sp. 'group A'; experiment: growth inhibition of control SK(-) GAS strain, dose response, counter-screen for streptokinase expression inhibitor project, luminescence, kanamycin, BacTiterGlo, confirmation (AID 1900); format: functional, organism-based
[15] = cells; format: functional, cell-based
[16] = cells; format: functional, cell-based; remark: listed apart in the source
[17] = target: Voltage-dependent T-type calcium channel subunit alpha-1H (Homo sapiens, UniProt O95180); format: functional;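 note: channel activity triggered by adding a high calcium stimulation buffer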
[18] = target: Nonstructural protein 1 (Influenza A virus, UniProt Q194T2); format: functional, Influenza A virus (A/California/07/2009(H1N1))
Sequence of Nonstructural protein 1 (Q194T2 whole entry): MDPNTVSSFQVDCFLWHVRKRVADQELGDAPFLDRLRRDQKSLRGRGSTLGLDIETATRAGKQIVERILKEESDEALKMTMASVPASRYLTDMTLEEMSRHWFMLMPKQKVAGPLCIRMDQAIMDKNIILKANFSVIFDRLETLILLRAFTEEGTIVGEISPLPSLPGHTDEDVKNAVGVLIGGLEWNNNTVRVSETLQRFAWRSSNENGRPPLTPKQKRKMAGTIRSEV

Structure (SMILES): Nc1cc(Nc2ccc(Br)cc2)nc(N)n1
- EC50 [1]: > 120 µM (not active)
- IC50 [2]: > 66 µM (inactive)
- EC50 [3]: 17.4 µM (active)
- EC50 [4]: 11.3 µM (active)
- IC50 [5]: 55.4 µM (inactive)

Structure (SMILES): COc1ccccc1N(C(=O)c1snc(C(N)=O)c1N)C(C(=O)NCc1ccccc1)c1ccc(O)cc1 (stereo not given)
- IC50 [6]: 50 µM (inactive)

Structure (SMILES): [O-][N+](=Cc1ccccc1)c1ccc(Cl)cc1
- IC50 [7]: 57 µM (inactive)

Structure (SMILES): Oc1nncc(N/N=C/C=C/c2ccccc2)n1
- IC50 [8]: > 47.1 µM (inactive)
- AC50 [9]: 7.38 µM (active)
- EC50 [10]: > 53 µM (inactive)

Structure (SMILES): Cc1c(NC(=O)c2cc(CC(C)C)on2)c(=O)n(-c2ccccc2)n1C
- IC50 [11]: > 64 µM (inactive)

Structure (SMILES): NC(=O)c1nn(CC(=O)Nc2ccc3c(c2)OCO3)cc1[N+](=O)[O-]
- IC50 [12]: 15.3 µM (not active)

Structure (SMILES): CCc1ccc(OS(=O)(=O)c2cn(C)c(=O)n(C)c2=O)cc1
- IC50 [2]: > 66 µM (inactive)
- IC50 [5]: > 66 µM (inactive)

Structure (SMILES): COc1ccc(CN(C)CCCn2ccc(NC(=O)OCc3ccccc3)nc2=O)cc1OC
- IC50 [6]: 23.5 µM (inactive)

Structure (SMILES): CC(C)C(=O)Nc1ccc(C(=O)N/N=C/c2cc(Br)cc(Br)c2O)cc1
- AC50 [9]: 16.7 µM (active)
- EC50 [13]: 2.04 µM (active)
- EC50 [14]: 1.65 µM (active)

Structure (SMILES): Cc1noc(C(=O)Nc2sc3c(c2C#N)CCC3)c1Cl
- EC50 [15]: 57 µM (active)
- IC50 [7]: 47.5 µM (inactive)
- EC50 [16]: > 350 µM (not active)

Structure (SMILES): O=C(O)CCCN1C(=O)C(O)=C(C(=O)c2ccc(Cl)cc2)C1c1ccccc1 (stereo not given)
- IC50 [2]: > 66 µM (inactive)
- IC50 [5]: > 66 µM (inactive)

Structure (SMILES): CS(=O)(=O)N(CC(=O)N1CCN(c2ccccc2)CC1)c1ccc(Cl)c(C(F)(F)F)c1
- EC50 [17]: 5.13 µM (active)

Structure (SMILES): CN(CCC(=O)c1ccccc1)CCC(=O)c1ccccc1
- IC50 [2]: > 66 µM (inactive)
- IC50 [5]: > 66 µM (inactive)

Structure (SMILES): COc1ccc(NC(=S)NC2CCS(=O)(=O)C2)cc1 (stereo not given)
- IC50 [11]: > 64 µM (inactive)

Structure (SMILES): CN(C)c1ccc(CC(=O)c2nc3ccccc3s2)cc1
- IC50 [12]: 2.73 µM (active)

Structure (SMILES): CCCCN1C(=O)NC2NC(=O)NC21 (stereo not given)
- IC50 [18]: > 100 µM (active)
- IC50 [6]: 0.905 µM (active)

Reference: ChEMBL document CHEMBL1201862, “PubChem BioAssay data set” (2004)
